According to patent publication US4873081A, “Percutaneous absorption preparation” (priority 1986, dated 1989):
Where a name gives a salt, the structure may show the parent alone.

Tests used:
in vivo = experiment: in vivo; set-up: species or system male Wistar rats; conditions: rat, topical or ocular; for AUC(0-t) at 36 h: AUC (0-36 hours)
Excerpt: In Table 1, the results obtained are shown. The calcium salts of the anti-inflammatory drugs in the ointment were absorbed to a much greater degree than the indomethacin (Rp. 1).

[1] = tested on: carrageenan-induced paw edema; experiment: Carrageenan-induced edema in hindpaw of rat; format: in vivo, male Wistar rats; conditions: 0.14 g gel ointment on abdominal skin 6 h before carrageenan
Procedure: (§1) Experimental carrageenan edema was induced in groups of six male Wistar rats weighing 150-160 g. […] The gel without the drug was similarly applied to the control group. The treated area was immediately covered by aluminum foil and adhesive tape. Six hours later, 1% carrageenan solution was injected subcutaneously into the sole of the right hindpaw. The volumes of both hindpaw were measured hourly using a plethysmometer and the edema volume was calculated from the difference between the injected and non-injected paws. FIG. 3 indicates the effect on the carrageenan-induced paw edema of these ointments applied topically.

[2] = Plasma concentration of indomethacin during multiple percutaneous dosing of ointment to rats; format: in vivo, male Wistar rats; conditions: 0.14 g per 1.0×1.0 cm
Procedure: The hair of the abdominal area of male Wistar rats weighing 250-300 g was removed in the same manner as described in Example 6. […] The rats were fixed in the Bollman cages for 24 hours. The ointment remained in contact with the skin for 24 hours, and then the unabsorbed ointment was wiped off. Subsequently, second and third applications of the ointment (0.14 g, 1.0×1.0 cm area) were made at different positions on the abdomen similar to the first application. The drug concentrations were determined by the same procedure as described in Example 6. FIG. 2 depicts the plasma indomethacin concentrations after the topical application of these ointments.

[3] = tested on: adjuvant arthritis induced with M. butyricum; experiment: Adjuvant arthritis induced with M. butyricum; format: in vivo, male Wistar rats; conditions: for Inhibition: adjuvant arthritis; for Inhibition / Foot volume: day 16, mean ± S.D. of 6 rats; for Foot volume: 0.14 g gel ointment every other day from day 11 to 15, *p <0.05 vs control
Procedure: as §1
M. butyricum (Difco Lab., USA) suspended in paraffin oil was injected into the sole of right hindpaw of male Wistar rats weighing 150-160 g. […] The edema volumes were calculated by measuring the volumes of both hindpaws on day 16, according to the same procedure as described in Example 9.

shaved back skin = tested on: shaved back skin; set-up: species or system male rabbits; conditions: rabbit, in vivo
Procedure: The evaluation of skin reactions was done by the erythema and edema scores 24 and 72 hours after application.

[4] = Absorption of the active ingredient from other bases or with other promoters; conditions: calcium thioglycolate as absorption promoter

Row | SMILES | AUC(0-t) at 36 h (in vivo) [µg·h/mL] | Bioavailability (in vivo) [%] | AUC (0-36 hours) (in vivo) [µg·h/mL] | Inhibition [3] [%] | Foot volume [3] [mL] | erythema produced by the ointment (shaved back skin) | irritation produced by the ointment (shaved back skin) | further results
1 | O=C(O)COc1nn(Cc2ccccc2)c2ccccc12 [Bendazac calcium] | 460 ± 31.5 |  |  |  |  |  |  | 
2 | O=C(O)Cc1ccccc1Nc1c(Cl)cccc1Cl [Diclofenac calcium] | 465 ± 32.4 |  |  |  |  |  |  | 
3 | O=C(O)c1ccccc1Nc1cccc(C(F)(F)F)c1 [Flufenamate calcium] | 463 ± 18.9 |  |  |  |  |  |  | 
4 | COc1ccc2c(c1)c(CC(=O)O)c(C)n2C(=O)c1ccc(Cl)cc1 [Indomethacin calcium, Calcium salt of indomethacin] |  | 70.3 ± 4.1 | 473.4 ± 16.5 | 51.0 ± 7.6 | 2.38 ± 0.12 | only slight erythema | nearly negligible | inhibitory effect on carrageenan-induced paw edema [1]: significantly higher inhibitory effect; absorption through the skin compared with indomethacin ([2]; three 24 h applications): readily and quickly absorbed through the skin compared with indomethacin; plasma levels after application of the gel ointment ([2]; multiple dosing, vs indomethacin ointment): much higher plasma levels; inhibitory effect on adjuvant arthritis ([3]; compared with indomethacin ointment): significant inhibitory effect, to the same extent as the indomethacin ointment; absorption of the active ingredient on addition of calcium thioglycolate [4]: dramatically decrease the absorption
5 | COc1ccc2c(c1)c(CC(=O)O)c(C)n2C(=O)c1ccc(Cl)cc1 [Indomethacin, indomethacin, reference compound] |  | 7.3 ± 1.4 | 50.4 ± 7.8 | 55.4 ± 10.5 | 2.32 ± 0.16 | only slight erythema | nearly negligible | 
6 | Cc1cccc(Nc2ccccc2C(=O)O)c1C [Mefenamate calcium, Calcium mefenamate] | 470 ± 40.5 |  |  |  |  |  |  | 
